Measurements taken from paper PMC7504817, “Phenylalanine Stereoisomers of CJ-15,208 and [D-Trp]CJ-15,208 Exhibit Distinctly Different Opioid Activity Profiles” (Molecules, 2020).
“Also recorded” adds a separate entry of the source. Read-outs that look alike come from different tables or passages of the source.

Assays:
KOR = molecular target: T1, KOR (Mus musculus, UniProt P33534); assay: Antagonist activity against KOR-selective agonist U50,488 (tail-withdrawal assay); type: in vivo; conditions: stereoisomer 30 nmol i.c.v. pretreatment; U50,488 10 mg/kg i.p.
T1 construct: from tissue; host or cells: whole animal, C57BL/6J mice

[1] = Metabolic stability in mouse liver microsomes; type: in vitro ADME; conditions: pH 7.4, 5 µM peptide, 0.25 mg/mL protein, with NADPH, 37 °C, read-out: t1/2 in mouse liver microsomes
Description: The macrocyclic tetrapeptide (5 µM) in 1% acetonitrile was incubated with mouse liver microsomes (0.25 mg/mL protein, Xenotech, Lenexa, KS, USA) at 37 °C in the presence or absence of co-factor NADPH RapidStart System (1 mM, Xenotech) or NADPH solution (Sigma, St. Louis, MO, USA) in potassium phosphate buffer (50 mM, pH 7.4). Aliquots (100 µL) taken at 0, 5, 15, 30, 60 and 120 min were quenched with ice-cold acetonitrile (1 vol) containing internal standard ([D-NMeAla^2]CJ-15,208 [26], 5 µM) to precipitate the proteins. The lack of endogenous interference with the analysis of the stereoisomer or internal standard was confirmed by analyzing samples lacking the macrocyclic tetrapeptide.
Following centrifugation at 10,000× g rpm for 10 min, the supernatant (50 µL) was diluted with water (75 µL), stored overnight at −20 °C and analyzed by LC-MS/MS using methodology similar to that described for [D-Trp]CJ-15,208 [32]. Liquid chromatography was performed on a Hypersil BDS C8 column (50 mm × 2.1 mm, 3 µm) with a flow rate of 0.2 mL/min and an injection volume of 20 µL using an Acquity UPLC system (Waters, Milford, MA, USA). The peptides were separated using a gradient of aqueous acetonitrile containing 0.08% formic acid of 20% B (0–2 min), 20–50% B (2–3 min), 50–80% B (3–6 min), 80% B (6–7 min), 80–20% B (7–8 min) and 20% B (8–10 min).
ESI-MS/MS was performed on a Waters Quatro triple quadrupole instrument operating in the positive ion multiple reaction monitoring mode. Data acquisition was carried out with Mass Lynx 4.1 software with the following settings: capillary voltage, 2500 V; cone voltage, 30 V; source temperature, 100 °C; desolvation temperature, 250 °C; cone gas flow, 279 L/h; desolvation gas flow, 1157 L/h; LM 1 resolution, 14; HM 1 resolution, 14; ion energy 1, 1.0; MS/MS mode entrance, -1; MS/MS collision energy, 35 eV; MS/MS mode exit, 2; LM 2 resolution, 13.0; HM 2 resolution, 13.0; ion energy 2, 1.5; multiplier, 650; collision cell pressure, 1.63 × 10^−3 mbar; collision gas, argon. The transition m/z 578.2 ([M + H]^+) → 217.2 was monitored to determine the peak area counts of the stereoisomers, and m/z 566.2 ([M + H]^+) → 232.9 was monitored to determine the peak area counts of the internal standard (collision energy 22 eV) with the following settings: dwell time, 0.3 s; delay, 0.05 s.

rat MOR = molecular target: T2, rat MOR (Rattus norvegicus, UniProt P33535); assay: Radioligand equilibrium competition binding, MOR; conditions: [3H]DAMGO; membranes from CHO cells expressing rat MOR; mean ± SEM, at least three experiments
T2 construct: expressed in transfected cells

C57BL/6J mice [2] = assay: Opioid receptor involvement in antinociception (antagonist pretreatment, tail-withdrawal assay); type: in vivo, mouse; conditions: i.c.v. (1, 3, 4, 5 at 10 nmol, 2 at 100 nmol); pretreatment with β-FNA, nor-BNI or naltrindole
C57BL/6J mice [3] = assay: 55 °C warm-water tail-withdrawal assay (antinociception); type: in vivo, mouse; set-up: key to ED50 p.o. (symbol: not calculable): ~: Maximum antinociception not achieved, precluding calculation of an ED50 value; conditions: for ED50 (and 95% C.I.) i.c.v. / ED50 (and 95% C.I.) p.o. / ED50 p.o. (symbol: not calculable): C57BL/6J mice; for ED50 (and 95% C.I.) i.c.v. / ED50 (and 95% C.I.) p.o.: antinociception at peak response; for antinociceptive efficacy / ED50 (and 95% C.I.) p.o. / antinociception at the highest oral dose tested / ED50 p.o. (symbol: not calculable): p.o.; for antinociception at the highest oral dose tested: 30 mg/kg
Description: For intracerebroventricular (i.c.v.) administration the macrocyclic tetrapeptides were dissolved in dimethyl sulfoxide (DMSO), followed by addition of sterile saline (0.9%) so that the final vehicle was 50% DMSO and 50% saline, and the i.c.v. injections performed as described previously. This concentration of DMSO was not observed to have antinociceptive or behavioral effects in previous use. For per os (p.o.) administration the macrocyclic tetrapeptides were administered in 10% Solutol in 0.9% saline. All solutions for animal administration were prepared fresh daily.
The 55 °C warm-water tail-withdrawal assay was performed in mice as previously described, with the latency of the mouse to withdraw its tail from the water taken as the endpoint (a cut-off time of 15 sec was used in this assay). Antinociception was calculated according to the following formula: % antinociception = 100 × (test latency − control latency)/(15 − control latency). Tail-withdrawal data points are the means of 8–16 mice, unless otherwise indicated, with SEM shown by error bars.
All dose-response lines were analyzed by regression, and ED50 (effective dose producing 50% antinociception) values and 95% confidence intervals (C.I.) determined using individual data points from graded dose-response curves with Prism 8.0 software (GraphPad, La Jolla, CA, USA). Percent antinociception was used to determine within group effects and to allow comparison to baseline latency in tail-withdrawal experiments. The statistical significance of differences between ED50 values was determined by evaluation of the ED50 value shift via nonlinear regression modeling with Prism software. Significant differences in behavioral data were analyzed by ANOVA (one-way or two-way with repeated measures (RM), as appropriate). Significant results were further analyzed with Sidak’s, Tukey’s, or Dunnett’s multiple comparison post hoc tests, as appropriate. Data for conditioned place preference experiments were analyzed by two-way RM ANOVA, with analyses examining the main effect of conditioned place preference phase (e.g., pre- or post-conditioning) and the interaction of drug pretreatment. Significant effects were further analyzed using Sidak’s HSD post hoc testing. All data are presented as mean ± SEM, with significance set at p < 0.05.

C57BL/6J mice [4] = conditions: mouse, in vivo
rat KOR [5] = molecular target: T3, rat KOR (Rattus norvegicus, UniProt P34975); assay: biochemical
C57BL/6J mice [6] = assay: Acute antinociceptive tolerance (tail-withdrawal assay, dosing at 0 and 8 h); conditions: i.c.v.; for Fold-Shift, Naïve ED50 vs. Second ED50: 0 h vs 8 h; for acute antinociceptive tolerance: ED50 at 8 h vs 0 h; for Naïve ED50 (95% C.I.): naïve C57BL/6J mice, tail-withdrawal assay; for ED50 (95% C.I.) Pretreated Mice: 8 h after pretreatment with ED50 dose of the same compound, * significantly different from naïve
rat KOR [7] = molecular target: T3, rat KOR; conditions: ratio Ki(MOR)/Ki(KOR)
C57BL/6J mice [8] = conditions: mouse, in vivo; remark: listed apart in the source
C57BL/6J mice [9] = conditions: mouse, in vivo; remark: listed apart in the source
mouse DOR = conditions: radioligand binding; ref [19]; cited from earlier work
C57BL/6J mice [10] = tested on: C57BL/6J mice; set-up: key to ED50 i.c.v. (symbol: not calculable) / ED50 p.o. (symbol: not calculable): ~: Maximum antinociception not achieved, precluding calculation of an ED50 value; conditions: ref [19], cited from earlier work

T2 sequence (P33535 whole entry): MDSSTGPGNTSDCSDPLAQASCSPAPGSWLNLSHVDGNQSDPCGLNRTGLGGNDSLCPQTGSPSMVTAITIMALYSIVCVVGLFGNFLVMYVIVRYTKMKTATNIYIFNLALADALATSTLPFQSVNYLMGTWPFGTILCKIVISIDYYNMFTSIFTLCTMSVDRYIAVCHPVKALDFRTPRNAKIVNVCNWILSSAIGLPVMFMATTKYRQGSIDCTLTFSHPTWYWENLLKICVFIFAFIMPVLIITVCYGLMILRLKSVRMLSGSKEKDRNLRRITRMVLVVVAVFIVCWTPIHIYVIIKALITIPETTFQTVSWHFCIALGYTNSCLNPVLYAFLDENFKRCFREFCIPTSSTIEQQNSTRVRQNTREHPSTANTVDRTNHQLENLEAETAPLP
T3 sequence (P34975 whole entry): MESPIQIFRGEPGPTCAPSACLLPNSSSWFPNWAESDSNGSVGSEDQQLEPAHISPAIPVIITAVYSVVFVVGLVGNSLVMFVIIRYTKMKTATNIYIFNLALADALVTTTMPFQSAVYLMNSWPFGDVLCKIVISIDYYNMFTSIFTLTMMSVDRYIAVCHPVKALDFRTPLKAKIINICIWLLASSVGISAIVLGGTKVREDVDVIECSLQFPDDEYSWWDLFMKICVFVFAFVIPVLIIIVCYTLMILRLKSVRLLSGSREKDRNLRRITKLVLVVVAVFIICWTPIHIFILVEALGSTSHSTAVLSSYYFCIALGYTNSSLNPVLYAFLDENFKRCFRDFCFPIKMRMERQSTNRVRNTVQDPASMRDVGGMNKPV
T1 sequence (P33534 whole entry): as the sequence (P34975 whole entry) above, with E11D, A17S, P51S, V308A counted along it

| Structure (SMILES) | half-life at 5 µM [1] | Ki (rat MOR) | Receptors Involved (in antinociception) (C57BL/6J mice [2]) | time of peak antinociception (C57BL/6J mice [3]; after i.c.v. administration) | duration of significant antinociception (C57BL/6J mice [3]; i.c.v. administration) | ED50 (and 95% C.I.) i.c.v. (C57BL/6J mice [3]; i.c.v.) | antinociceptive efficacy (C57BL/6J mice [3]) | time of peak antinociception (C57BL/6J mice [3]; p.o. administration) | ED50 (and 95% C.I.) p.o. (C57BL/6J mice [3]) | effect on coordinated locomotor performance (rotarod) vs vehicle (C57BL/6J mice [4]) | Ki (rat KOR [5]) | Fold-Shift, Naïve ED50 vs. Second ED50 (C57BL/6J mice [6]) | acute antinociceptive tolerance (C57BL/6J mice [6]) | Naïve ED50 (95% C.I.) (C57BL/6J mice [6]) | antinociception at the highest oral dose tested (C57BL/6J mice [3]) | ED50 p.o. (symbol: not calculable) (C57BL/6J mice [3]) | Selectivity Ki (MOR) Ki (KOR) (rat KOR [7]) | ED50 (95% C.I.) Pretreated Mice (C57BL/6J mice [6]) | also measured |
| --- | --- | --- | --- | --- | --- | --- | --- | --- | --- | --- | --- | --- | --- | --- | --- | --- | --- | --- | --- |
| O=C1N[C@H](Cc2ccccc2)C(=O)N2CCC[C@@H]2C(=O)N[C@@H](Cc2ccccc2)C(=O)N[C@H]1Cc1c[nH]c2ccccc12 (single isomer, unassigned) [Stereoisomer 1, cyclo[D-Phe-D-Pro-Phe-Trp]] | 54 min | > 10000 nM | all three opioid receptors contributed to the antinociception; also recorded: KOR, MOR, DOR | 20 min | intermediate duration | 0.75 (0.36–1.44) nmol | full antinociception | 20 to 30 min | 7.62 (5.12–12.2) mg/kg | limited impairment of performance | 5.12 ± 0.69 µM | 31.2 fold | greater acute antinociceptive tolerance than CJ-15,208 | 0.65 (0.31–1.31) nmol |  |  |  |  | antagonism of U50,488 antinociception (KOR antagonist activity) (KOR): significant antagonism of U50,488 |
| O=C1N[C@@H](Cc2ccccc2)C(=O)N2CCC[C@@H]2C(=O)N[C@H](Cc2ccccc2)C(=O)N[C@H]1Cc1c[nH]c2ccccc12 (single isomer, unassigned) [Stereoisomer 2, cyclo[Phe-D-Pro-D-Phe-Trp]] | 15 min | 3920 ± 200 nM | KOR- and MOR-mediated antinociception | 30 min | 90 min | 20.4 (10–58.7) nmol |  |  |  | lacked any significant effect | 0.362 ± 0.051 µM | 6.13 fold | the increase was not statistically significant | 20.4 (10–58.7) nmol | 45–60% | ~ | 11 | 125 (89.9–224) nmol | antinociception at the highest dose tested (C57BL/6J mice [3]; 100 nmol, i.c.v.): approximately 70% |
| O=C1N[C@H](Cc2ccccc2)C(=O)N2CCC[C@@H]2C(=O)N[C@H](Cc2ccccc2)C(=O)N[C@H]1Cc1c[nH]c2ccccc12 (single isomer, unassigned) [Stereoisomer 3, cyclo[D-Phe-D-Pro-D-Phe-Trp]] | 6 min | 7780 ± 410 nM | KOR- and DOR-mediated | 20 min | 45 min | 1.00 (0.64–1.60) nmol | full antinociception | 20 to 30 min | 4.12 (3.30–5.31) mg/kg | lacked any significant effect | 2.56 ± 0.48 µM | 5.19 fold | greater acute antinociceptive tolerance than CJ-15,208 | 1.00 (0.64–1.60) nmol |  |  | 3 |  | conditioned place preference or aversion (C57BL/6J mice [8]): no significant preference or aversion; effect on ambulation vs vehicle (C57BL/6J mice [9]): elevated ambulations at several time-points |
| O=C1N[C@H](Cc2c[nH]c3ccccc23)C(=O)N[C@H](Cc2ccccc2)C(=O)N2CCC[C@@H]2C(=O)N[C@H]1Cc1ccccc1 (single isomer, unassigned) [Stereoisomer 4, cyclo[D-Phe-D-Pro-Phe-D-Trp]] | 30 min | > 10000 nM | KOR- and DOR-mediated | 20 min | 45 min | 2.39 (1.40–4.56) nmol |  |  |  | limited impairment of performance | > 10 µM | 0.54 fold | Neither stereoisomer 4 or 5 demonstrated any significant changes in the ED50 values | 2.39 (1.40–4.56) nmol | 45–60% | ~ |  | 1.28 (0.96–1.66) nmol | duration of significant antinociception (C57BL/6J mice [3]; p.o. administration): 30 to 40 min; effect on respiration rate vs vehicle (C57BL/6J mice [9]): significant decreases in respiration rates |
| O=C1N[C@H](Cc2c[nH]c3ccccc23)C(=O)N[C@@H](Cc2ccccc2)C(=O)N2CCC[C@@H]2C(=O)N[C@H]1Cc1ccccc1 [[D-Trp]CJ-15,208, cyclo[Phe-D-Pro-Phe-D-Trp]] |  |  |  |  |  |  |  |  |  |  | 0.0218 ± 0.0048 µM |  |  |  |  |  | 12 |  | affinity for DOR (mouse DOR): negligible affinity for DOR; ED50 i.c.v. (symbol: not calculable) (C57BL/6J mice [10]; i.c.v., mice, [21]): ~; ED50 p.o. (symbol: not calculable) (C57BL/6J mice [10]; p.o., mice, [21]): ~; antinociceptive activity (C57BL/6J mice [10]): minimal antinociceptive activity |
